Laboratory results: paper PMC5641551, “Chemical Proteomics for Target Discovery of Head-to-Tail Cyclized Mini-Proteins” (Frontiers in Chemistry, 2017)

Assays:
[1] = tested on: Foxo3a transcriptional activity in HEK293 cells co-transfected with 14-3-3β; test: Foxo3a luciferase reporter gene assay; assay type: cell-based, human; details: for Foxo3a transcriptional activity, effect in words: HEK293, luciferase reporter, PI3K inhibitors as controls, peptide 4 h
Method: Jurkat cells were cultured in RPMI medium containing phenol red supplemented with 10% (v/v) heat deactivated fetal calf serum and 100 U/mL penicillin/streptomycin at 37°C in humidified atmosphere of 5% CO2. HEK293 cells were cultured in Dulbecco's modified eagle high glucose medium supplied with 10% fetal calf serum and 100 U per mL penicillin/streptomycin. Cell transfection was carried out by Jetprime® according to the manufacturer's recommendation (Polyplus, Illkirch, France).
Forkhead box protein 3a induced transcriptional activity was measured on transiently transfected HEK293 cells (5 × 10^4). The reporter plasmid encoding luciferase under the control of a promotor containing forkhead responsive elements and the human p-Foxo3a-HA plasmid were gifts of Michael Greenberg provided by the Addgene consortium (#1787 and #1789; Brunet et al., [1999]). The plasmids encoding the mouse p-14-3-3 beta-GST protein and the functional forkhead transcription factor were used in a 1.5-fold amount compared to the reporter construct. The transfection was completed after 6 h and the cells could recover for 4 h in growth medium. The cells were serum starved using 1% (v/v) fetal bovine serum in phenol red free DMEM medium supplemented with antibiotics overnight. After 4 h peptide and 24 h of fusicoccin-A treatment the luciferase assay was developed using luciferase development kit from Promega E151 (Wisconsin, United States) and the luminescence was measured on a synergy H4 plate reader (Biotek). Control compounds were the PI3K inhibitors wortmannin and LY294002 (both Sigma Aldrich). The recorded data were normalized to the non-treated control sample. Significance and IC50-values were calculated from at least two biological replicates using GraphPad Prism. Data analysis was performed by non-linear regression using a four parameter Hill equation.
If not stated in detail for the respective single experiment the statistical tests were performed using GraphPad Prism 5.04 (GraphPad, La Jolla, CA) using one-way ANOVA with Bonferonni or Dunnett's Post-hoc test. The number of technical and biological repeats was justified by analysis of error and reproducibility of results. Significance threshold P < 0.05 was applied to all experiments. For the data shown in Figure 3 three individuals for the in vivo experiments were used and each data point was performed in three technical replicates. The pull down experiments shown in Figures 4A,B were performed a single time and the data represent two technical repeats. Gel lanes were loaded with single (1x) or doubled (2x) amount of pull down proteins for better visibility. The data illustrated in Figures 4C,D were performed in two independent experiments. Silver stained gel lanes were evaluated by loading various amounts, and then the amount with optimized staining contrast was loaded and used for in-gel protein digestion. The pull down experiments shown in Figures 4E,F were performed a single time. The Western Blots and the pull down experiment shown in Figure 5 represent experiments in three and two independent experiments, respectively. Experiments in a well-based format (Figure 6) were performed with three technical and two biological replicates. All data illustrated in this manuscript show the mean ± standard deviation (SD) unless stated otherwise. The MS based protein identifications were performed in two technical analyses for each sample.
Figure 6 Foxo3a luciferase reporter assay. The modulation of the Akt/PI3K/Foxo3a pathway by the cyclotide [T20K]kB1 binding to 14-3-3 proteins was investigated. HEK293 cells were transiently transfected with Foxo3a-Luc plasmid encoding luciferase under a promotor with Foxo response elements, Foxo3a and 14-3-3β. For control the reporter plasmid (basal value) was also co-transfected with the single functional effector proteins 14-3-3β or Foxo3a. Cells were treated under starving conditions with peptide or fusicoccin-A (FC-A) for 4 h or 24 h, respectively. […]

14-3-3 proteins = details: cited from earlier work
From the text: There are generally two types of 14-3-3 ligands: (i) inhibitors or (ii) stabilizers. […] In contrast, 14-3-3 stabilizers enforce a protein-protein interaction and they may account for an increased retention of 14-3-3 complexed proteins in the cytosol or other cellular compartments (Ottmann, [2013]; Bier et al., [2015]).

[2] = tested on: myelin oligodendrocyte glycoprotein (MOG)-immunized mouse splenocytes; test: anti-proliferation assay of MOG-restimulated splenocytes from 2D2 mice; assay type: cell-based; details: summary in words; [T20K,W23Bpa]kB1 versus [T20K]kB1, 4 μM
Method: Biological integrity of probes was determined using their reported immunosuppressive activity (Grundemann et al., [2013]; Thell et al., [2016]). Briefly, activity was measured in isolated lymphocytes derived from self-donated human venous blood or mouse splenocytes derived from 2D2 myelin oligodendrocyte glycoprotein specific T-cell receptor transgenic mice on a C57Bl/6 background [C57Bl/6-Tg(Tcra2D2,Tcrb2D2) Kuch/J]. These mice develop spontaneous experimental autoimmune encephalomyelitis, a mouse model of multiple sclerosis. Bioactivity was assessed by T-cell proliferation using FACS or cytokine concentration analysis of interleukin-2 in the supernatant of ex vivo re-stimulated splenocytes for 72 h using an ELISA kit and antibodies from eBioscience® (Grundemann et al., [2013]; Thell et al., [2016]). All experiments were approved according to the European Community rules of animal care with the permission of the Austrian Ministry of Science (BMWF-66.009/0241-II/3B/2011).
If not stated in detail for the respective single experiment the statistical tests were performed using GraphPad Prism 5.04 (GraphPad, La Jolla, CA) using one-way ANOVA with Bonferonni or Dunnett's Post-hoc test. […] Silver stained gel lanes were evaluated by loading various amounts, and then the amount with optimized staining contrast was loaded and used for in-gel protein digestion. […]

GST-tagged 14-3-3β = test: co-precipitation of GST-tagged 14-3-3β with cyclotide probe and competitors; assay type: binding; details: immunoblot and far Western blot; 2 h at 4°C; competitors 150–500-fold molar excess
Method: (§1) Splenocytes or Jurkat cells were lysed with 25 mM Tris-HCl pH 7.4, 40 mM KCl, 2.5 mM MgSO4 2.5 mM CaCl2, 2% (v/v) glycerol, 1 mM EDTA under repeated freeze-thaw cycles and 10 min sonification. All experiments were performed in buffer with 1x complete protease inhibitor cocktail (Hoffman-La Roche, Basel, Switzerland). Cell membranes and debris were pelleted for 30 min at 16,000 × g and the supernatant corresponds to the “soluble cell lysate.” Protein concentration was determined using a bicinchoninic acid assay kit (Thermo Scientific) and DTT (1 mM) was added to keep redox potential constant during binding experiments. Photo-affinity pull down samples were submitted to denaturing sodium dodecyl sulfate polyacrylamide gel electrophoresis (PAGE). For immunoblotting according to earlier published protocols (Gruber et al., [2007]; Bergmayr et al., [2013]) proteins were semi-dry transferred onto a nitrocellulose membrane 0.45 μM (Amersham Protran, GE Healthcare, Austria) using a Fast Semi-dry blotter (Bio-Rad) at 0.25 mA per gel for 1 h. Primary rabbit anti-GFP antibody (1:5,000) was from Invitrogen (A6455), rabbit anti-GST antibody (1:2,500) from Abcam (ab9085), and mouse anti-human calcineurin subunit A antibody (1:2,000) clone BE2.1 from eBioscience. Secondary ECL anti-mouse (NA931V) or ECL anti-rabbit (NA934VS) IgG antibodies (1:10,000) were conjugated with horse radish peroxidase (GE Healthcare). Chemo-luminescence signals were detected on an imaging system FluorChem HD2 (Alpha Innotech, CA, United States). For silver staining protein gels were treated immediately after electrophoresis with fixing solution EtOH/ddH2O/acetic acid 50/40/10% (v/v/v) for 20 min. Gels had to be washed acid free, first with 50% (v/v) EtOH for 10 min and with ddH2O for 2 h. Gels were exposed to sensitization buffer 0.025% Na2S2O3 in ddH2O for 3 min, followed by 2 min wash with ddH2O. Gels were silver loaded using a 0.15% AgNO3 solution for 45 min in the dark. The protein bands were stained in development buffer formaldehyde/Na2CO3 0.04/2% (v/w) under rigorous shaking. The reaction was quenched with 5% (v/v) acetic acid solution and the gels were stored until further processing in the stopping buffer at 4°C. Pixel quantification was carried out using ImageJ v1.47 (National Institute for Health).
Biotin-LC-LC-labeled (ThermoFisher) peptides (1–5 nmoles) with or without ([…]) were incubated with Jurkat cell or murine splenocyte cell lysates (150–500 μg proteins) for 2 h at 4°C in the presence of protease inhibitors. UV-activation of photo-crosslinking moiety benzophenone was induced by irradiation at 360 nm on ice for 15 min (Stratalinker, Stratagene, CA, United States). […]

[3] = tested on: 14-3-3 proteins / 25 kDa protein band in murine splenocyte lysates; test: photo-affinity pull down, splenocyte lysate, with competitors; assay type: binding, mouse; details: for competition effect for 14-3-3 proteins (order): competitors at 100-fold molar excess versus bait [T20K,W23Bpa]kB1, in-gel digestion and proteomics
Method: as §1
Biotin-LC-LC-labeled (ThermoFisher) peptides (1–5 nmoles) with or without (non-biotinylated) competitor (20–100-fold molar excess) were incubated with Jurkat cell or murine splenocyte cell lysates (150–500 μg proteins) for 2 h at 4°C in the presence of protease inhibitors. UV-activation of photo-crosslinking moiety benzophenone was induced by irradiation at 360 nm on ice for 15 min (Stratalinker, Stratagene, CA, United States). […]

O=c1cc(N2CCOCC2)oc2c(-c3ccccc3)cccc12 [LY294002, reference compound]
Foxo3a transcriptional activity, effect in words [1]: increased transcriptional activity

C=CC(C)(C)OC[C@H]1O[C@H](O[C@@H]2C3=C([C@H](C)COC(C)=O)C[C@H](O)[C@]3(C)/C=C3/[C@@H](COC)CC[C@H]3[C@@H](C)[C@H]2O)[C@H](O)[C@@H](OC(C)=O)[C@@H]1O [fusicoccin-A, reference compound]
IC50 ([1]; HEK293 transfected with Foxo3a-Luc, Foxo3a and 14-3-3β, fusicoccin-A treatment 24 h, IC50 ± SD, two independent experiments, four parameter Hill fit, read-out: IC50, reduction of luciferase signal): 39.1 ± 2.34 µM | effect as 14-3-3 stabilizer (14-3-3 proteins; ref Skwarczynska et al., 2013, Bier et al., 2015, Milroy et al.): enforce protein complex formation of 14-3-3s with transcription factors

NC(=O)c1ncn([C@@H]2O[C@H](CO)[C@@H](O)[C@H]2O)c1O [mizoribine]
modulation of 14-3-3 protein function (14-3-3 proteins; ref Kawasaki, 2009): modulate 14-3-3 protein function

COC[C@H]1OC(=O)c2coc3c2[C@@]1(C)C1=C(C3=O)[C@@H]2CCC(=O)[C@@]2(C)C[C@H]1OC(C)=O [wortmannin, reference compound]
Foxo3a transcriptional activity, effect in words [1]: increased transcriptional activity

CGETCVGGTCNTPGCKCSXPVCTRNGLPV (bicyclic or more) [[T20K,W23Bpa]kB1]
biological activity of probe [2]: retained biological activity | binding of probe [T20K,W23Bpa]kB1 to 14-3-3β in presence of competitor (GST-tagged 14-3-3β): significantly altered | competition effect for 14-3-3 proteins (order) [3]: competition effect in the order [T20K]kB1 < [T20K,W23Bpa]kB1 < R18

PHCVPRDLSWLDLEANMCLP [R18, reference compound]
binding of probe [T20K,W23Bpa]kB1 to 14-3-3β in presence of competitor (GST-tagged 14-3-3β): significantly altered | effect on intensity of protein bands ([3]; competitor at 100-fold molar excess, silver stained gel): did not alter the intensity of protein bands throughout the sample | competition effect for 14-3-3 proteins (order) [3]: competition effect in the order [T20K]kB1 < [T20K,W23Bpa]kB1 < R18 | effect as 14-3-3 inhibitor on Foxo3a (14-3-3 proteins; ref Arrendale et al., 2012): increase Foxo3a nuclear import to induce pro-apoptotic transcriptional activity
